One data set deals with tumor necrosis factor. The data set can be described thus: Tumor necrosis factor secretion by rat macrophages. The class given is cell-based. The method, then: It has also been observed that pentamidine (10^-5 M) blocks the secretion of tumor necrosis factor in rat macrophages (42 units/ml - pentamidine vs. 82 units/ml - control), as well as tumor necrosis factor and IL-6 in human macrophages, where at a concentration of 10^-5 M pentamidine, tumor necrosis factor and IL-6 secretion are suppressed >50%. These additional cytokines are also very influential mediators in inflammatory diseases.
(§1) In vitro studies were performed by taking alveolar macrophages from normal healthy rat lungs and culturing them in the presence of an imidazoline with the inducer lipopolysaccharide for 24 hours. The standard bioassay for IL-1 was performed (see above).

The next data set has as its system rat macrophages. Kind of data set: In vitro toxicity to the cell (LD50). Format: cell-based. To be noted: imidazoline, summary statement; compared with pentamidine.
Data set [1] is described as follows: In vitro toxicity to the cell (LD50). Conditions: rat macrophages. The class given is cell-based.
For data set [2], the system named is IL-1. Kind of data set: IL-1 release from alveolar macrophages (thymocyte co-stimulation bioassay). Format: cell-based, rat. Conditions: for Effect on IL-1: LPS, 24 h, FIG. 7. How it is done:
Pulmonary alveolar macrophages were collected by lavaging the lungs as previously described (D. B. Warheit et al., Am. Rev. Resp. Dis. 134, 128 (1986)). Once washed and resuspended, the macrophages were allowed to adhere to plastic plates in serum free RPMI 1640 containing 25 mM Hepes, 2 mM L-glutamine, 50 μg/ml gentamicin and streptomycin (media). Following adherence for 1 hour at 37° C. in 5% CO2, the plates were washed once with warm media to remove nonadherent cells, cells were resuspended in media with 10% FCS and treated with or without pentamidine at the indicated concentration and LPS (5 ng/ml) for 24 hours). IL-1 activity was assayed using a thymocyte co-stimulation assay (S. B. Mizel in Methods in Macrophage Biology, Editors, Herscowitz and Holden (1981)). Single cell thymocyte suspension from B6C3F1 mice (female, 5-9 weeks old) at a concentration of 2.0×10^7 /ml in media containing 10% FCS, and 2.5×10^-5 M 2-β mercaptoethanol were added in 50 μl aliquots to each well of flat bottom microtiter plates along with 50 μl of PHA at 2.5 μg/ml. Serial dilution of supernatants or cells were made in media with 10% FCS and added in 100 μl aliquots. IL-1 activity was measured by quantifying the uptake of 3Hthymidine during the last 6 hours of a 72 hour culture at 37° C. and 5% CO2. Cells were harvested onto glass fiber filters and filter associated radioactivity counted in a scintillation counter.
as §1

Data set [3] concerns IL-1. The data set can be described thus: Western blot analysis of IL-1 on cellular protein from imidazoline treated cells. The class given is cell-based, rat. An excerpt: In addition, Western blot analysis of IL-1 on cellular protein derived from imidazoline treated cells was recently performed. This method definitively identifies the presence or absence of the protein using electrophoretic techniques to separate by molecular weight IL-1 from other proteins followed by staining with specific antibody fog IL-1.
(A western blot detects proteins with antibodies after separation by electrophoresis.)

The test system of a further data set is Ia antigen. The data set can be described thus: Ia antigen expression on alveolar macrophages (flow cytometry). Format: cell-based, rat. How it is done: ^a Ia antigen expression - Alveolar macrophages were diluted to 1×10^6 cells/ml in RPMI (supplemented as above). Three mls. (3×10^6 cells) were added to sterile teflon vials and treated with pentamidine or dexamethasone for 4 hours at 37° C., 5% CO2, followed by the addition of rat γ IFN at 100 U/ml. Cells were incubated for 18 hours, pelleted, counted and adjusted to 1×10^7 cells/ml in ice cold standard buffer (HBSS, 0.1% Na azide, 1% BSA).
Aliquots of cells (50 μl in quadruplicate) from the various treatment groups were plated to a 96 well round bottom plate (Linbro) and incubated for 45 minutes on ice with 50 μl aliquots of one of the following: monoclonal anti-rat OXS (Sera-lab), monoclonal anti-mouse OX6 (Sera-lab), both at 0.5 μg/5×10^5 cells, or HBSS (control). Cells were washed 3× with standard buffer and incubated for 45 minutes on ice, in the dark, with 50 μl of phycoerythrin-labeled goat anti-mouse IGGI (Fisher Biotech) at 1 μg/5×10^5 cells. Cells were washed 3× with standard buffer, resuspended in 0.4 ml of standard buffer and analyzed via flow cytometry.
For orientation: A flow cytometer gives signals particle by particle.

For a further data set, the system named is IL-1α mRNA. The data set can be described thus: Northern blot analysis of IL-1α mRNA expression. Format: cell-based, rat. To be noted: 1 μM dexamethasone, LPS, 3 h, FIG. 2. How it is done:
Specific transcription of IL-1α mRNA synthesis was assessed by incubating cells with and without 10 μM pentamidine or 1 μM of the corticosteroid, dexamethasone in the presence or absence of lipopolysaccharide (LPS). At the end of a 3 hour incubation period, the cells were lysed and the total cellular RNA was collected, blotted onto a nitrocellulose filter and probed with ^32 P-labeled IL-1α cDNA. […] In contrast, mRNA for IL-1α was not seen in dexamethasone treated cells.
For determination of IL-1 mRNA levels, cells (4×10^6) were cultured with or without pentamidine (10 μM) or dexamethasone (1 μM) in media with 10% FCS in the presence or absence of LPS (1 μg/ml) for 3 hours. Total cellular RNA was isolated by quanidinium-thiocyanate phenolchloroform extraction (P. Chomczynski et al., Anal. Bioch. 162, 156 (1987)). RNA (10 μg) was electrophoresed in 1.2% agarose gels as previously described (H. Leharch et al., Biochemistry 4743 (1977)). […] Hybridizing species were detected by autoradiography at -70° C., using Kodak XAR film with an intensifying screen. The total RNA levels per lane on the gel was assessed by monitoring 28S and 18S, and expression of α-tubulin mRNA. Accumulation of α-tubulin mRNA was determined by probing the same blot with ^32 P labeled 30 mer oligonucleotide (Du Pont).

Data set [4] has as its system Pulmonary alveolar macrophages. The data set can be described thus: Phagocytosis by pulmonary alveolar macrophages (Fluoresbrite beads, flow cytometry). The class given is cell-based, rat. How it is done: One ml aliquots were added to sterile teflon vials (Nalgene) along with pentamidine or dexamethasone (Sigma) as indicated, and incubated for 4 hours at 37° C., 5% CO2. Fluoresbrite carboxylate beads, 1.73 μm (Polysciences) were used to achieve a 100:1 bead to cell ratio and the suspension was incubated for 45 minutes at 37° C., 5% CO2 with gentle agitation. Cell suspensions were then layered over 3 mls. of RPMI/FCS+0.3% BSA, and cells pelleted at 150 xg for 10 minutes. Supernates were discarded and cells resuspended in 1 ml of RPMI/FCS for analysis via flow cytometry. The data presented above is the mean of the percentage of cells taking up one or more beads of triplicate cultures.

In the next data set the test system is IL-1α. The data set can be described thus: Western blot analysis of cell associated IL-1α. The class given is cell-based, rat. Conditions: 1 μM dexamethasone, LPS, 24 h, FIG. 3. How it is done:
To determine the effect of pentamidine on cellular stores of IL-1, intracellular levels of IL-1 were quantitated by incubating cells with and without 10 μM pentamidine and LPS for 24 hours. At the end of this incubation period, the cells were washed, lysed and the total cellular protein was collected for Western blot analysis. […] This is in agreement with the generally accepted existence of a precursor form of IL-1 with a molecular weight in the range of 31-33 kD (J. Giri et al., J. Immunol. 134, 343 (1985)).
Cells (4×10^6 cells) were oultured with pentamidine (10μM) or dexamethasone (1μM) in media with 10% fetal calf serum (FCS) in the presence or absence of LPS (1 μg/ml) for 24 hours. The cells were washed twice in HBSS and then scraped in homogenizing buffer (HBSS containing 0.1 mM EGTA, 1 mM pmsf, 10 μg/ml leupeptin, 1 KIU/ml aprotinin, pH 7.4). The cell suspension was left on ice for 10 minutes at which time the swollen cells were disrupted by sonication. The nuclei and undisrupted cells were pelleted by centrifugation at 800 rpm for 10 minutes and were discarded. The supernatant was centrifugated at 39,000 rpm for 1 hour at 4° C. After centrifugation, the supernatants containing cytosolic components of the cell was carefully removed and was used as the cytosol fraction. […] Molecular weight references were determined by running one lane with pre-stained molecular weight standards.

The text below walks through data of patent US5162361A, “Method of treating diseases associated with elevated levels of interleukin 1” (priority 1990, dated 1992).

As to `c1cc(C2=NCCN2)ccc1OCCCCCOc1ccc(C2=NCCN2)cc1` [Imidazoline, 1,5-di(4-imidazolinophenoxy)pentane], the “Tumor Necrosis Factor” value in the data set with tumor necrosis factor (10^-5 M Imidazoline, LPS, 24 h (control 83 ± 11)) is listed as 46 ± 19 units/ml. In addition, in the data set on tumor necrosis factor (imidazoline, summary statement), the “Block of tumor necrosis factor in rat macrophages” value is “ability to block IL-1 and tumor necrosis factor”. Also, in the data set on rat macrophages, the “Toxicity to the cell” value is recorded as “less toxic to the cell”. The CC50 in [1] was above 100 µM. Further, the “Effect on IL-1” value with IL-1 [2] (imidazoline 10^-6 M, 10^-5 M and 10^-4 M) is given as “blocked IL-1 in a dose related manner”; in the data set on IL-1 [2] (imidazoline 10^-8 M), “No effect”. In the data set on IL-1 [2] (imidazoline, summary statement), the “Block of IL-1 in rat macrophages” value is “ability to block IL-1”. Further, the “Block of IL-1 secretion (Western blot)” value with IL-1 [3] is “blocks the secretion of IL-1 in a similar manner to pentamidine”.

Turning to `C[C@@H]1C[C@H]2[C@@H]3CCC4=CC(=O)C=C[C@]4(C)[C@@]3(F)[C@@H](O)C[C@]2(C)[C@@]1(O)C(=O)CO` [Dexamethasone], the “Ia Antigen Expression (MFI)” value with Ia antigen (Dexamethasone 10^-6 M (control 459), p < 0.025 vs. control) is 253 MFI. Also, the “Mean concentration of Ia molecules on Ia positive cells” value in the data set on Ia antigen (result in words) was “clearly demonstrated its broad immunosuppressive action on these two macrophage functions”. Also, the “IL-1α mRNA expression” value in the data set on IL-1α mRNA was “not seen”. In addition, the “Phagocytic Index” value in data set [4] (Dexamethasone 10^-6 M (control 32), p < 0.025 vs. control) was determined as 25%. For the same compound, in [4] (result in words), the “Phagocytic capacity of alveolar macrophages” value was “clearly demonstrated its broad immunosuppressive action on these two macrophage functions”. Besides, in the data set with IL-1α, the “Cell associated IL-1α (Western blot)” value is “did not express the precursor from of IL-1α”.

In general, CC50 refers to the concentration at which the toxic effect on the cells reaches its halfway point. Low readings indicate harm at low concentration, high ones better tolerance by the cells.
